Columns and labels:
Format in all cases: in vivo
[1] = tested on: Soft Tick (Ornithidorus turicata); test: Soft Tick (Ornithidorus turicata) Blood Feed Assay; conditions: nymph stage ticks fed on treated citrated bovine blood; paralysis and/or death observed at approximately 24, 48 and 72 hours
Procedure: Soft Tick (Ornithidorus turicata) Blood Feed Assay
Compounds of the present invention were dissolved in dimethylsulfoxide (DMSO) and aliquots added to citrated bovine blood in a membrane covered Petri dish. The Petri dish is placed on a warming tray. Approximately 5 nymph stage ticks are placed onto the membrane, covered, and left to feed. Fed ticks are removed and placed into a Petri dish with sand. […] Endpoint data was recorded as a 100% lethal dose (LD^100) in μg/mL.

[2] = tested on: Flea (Ctenocephalides felis); test: Flea (Ctenocephalides felis) Membrane Feed Assay-Adult; conditions: adult fleas fed on treated citrated bovine blood for 24 hours, lowest dose to cause mortality ≧50%, half-log intervals, read-out: Minimum Effective Concentration (MEC)
Procedure: Flea (Ctenocephalides felis) Membrane Feed Assay-Adult
Compounds were dissolved in DMSO and aliquots were added to citrated bovine blood in membrane covered wells warmed to 37° C. Adult fleas were newly emerged (3-7 days) and unfed. Feeding wells containing approximately 10 adult fleas were placed onto the treated blood wells, and the fleas were allowed to feed on the treated blood for 24 hours. […] Each compound was tested at half-log intervals, and endpoint data was recorded as Minimum Effective Concentration in μM. MEC is a subjective visual assessment of organism viability, and is the lowest dose to cause mortality ≧50%.

[3] = tested on: Mosquito (Aedes aeqypti) larvae; test: Mosquito (Aedes aeqypti) Larval Assay; conditions: first instar larvae, 25° C., 24 hours, lowest dose to inhibit motility ≧50% of untreated controls, half-log intervals, read-out: Minimum Effective Concentration (MEC)
Procedure: Mosquito (Aedes aeqypti) Larval Assay
Compounds were dissolved in DMSO and aliquots were spotted to empty wells. First instar mosquito larvae and maintenance media were added to the wells to obtain between 8 and 15 larvae per well in the appropriate final assay volume. Larvae were incubated in the treated media at 25° C. for 24 hours. Mosquito larvae motility was measured at 24 hours. Each compound was tested at half-log intervals, and endpoint results were recorded as Minimum Effective Concentration (MEC) in μM. MEC is an objective assessment of organism motility, and is the lowest dose to inhibit motility ≧50% of untreated controls.

| Structure (SMILES) | 100% lethal dose (LD100) [1] | minimal effective concentration [2] | minimal effective concentration [3] |
| --- | --- | --- | --- |
| CS(=O)(=O)CC(=O)N1CC2(C1)OCc1cc(C3=NCC(c4cc(Cl)c(Cl)c(Cl)c4)(C(F)(F)F)C3)ccc12 (stereo not drawn) [Example 1, 2-(methylsulfonyl)-1-(5′-(3-(3,4,5-trichlorophenyl)-3-(trifluoromethyl)-3,4-dihydro-2H-pyrrol-5-yl)-3′H-spiro[azetidine-3,1′-isobenzofuran]-1-yl)ethanone] | 0.03 µg/mL | 0.3 µM | 0.1 µM |
| CC(C)C(=O)N1CC2(C1)OCc1cc(C3=NCC(c4cc(Cl)cc(Cl)c4)(C(F)(F)F)C3)ccc12 (stereo not drawn) [Example 6, 5′-(3-(3,5-dichlorophenyl)-3-(trifluoromethyl)-3,4-dihydro-2H-pyrrol-5-yl]-1-isobutyryl-3′H-spiro[azetidine-3,1′-[2]benzofuran]] | 0.03 µg/mL | 1 µM | 0.1 µM |
| CS(=O)(=O)CC(=O)N1CC2(C1)OCc1cc(C3=NNC(c4cc(Cl)c(F)c(Cl)c4)(C(F)(F)F)C3)ccc12 (stereo not drawn) [Example 13, 1-(5′-(5-(3,5-dichloro-4-fluorophenyl)-5-(trifluoromethyl)-4,5-dihydro-1H-pyrazol-3-yl)-3′H-spiro[azetidine-3,1′-isobenzofuran]-1-yl)-2-(methylsulfonyl)ethanone] | 0.03 µg/mL | ≥ 3 µM | 0.1 µM |
| CS(=O)(=O)CC(=O)N1CC2(C1)OCc1cc(N3CCC(c4cc(Cl)c(F)c(Cl)c4)(C(F)(F)F)C3)ccc12 (stereo not drawn) [Example 22, 1-(5-(3-(3,5-dichloro-4-fluorophenyl)-3-(trifluoromethyl)pyrrolidin-1-yl)-3′H-spiro[azetidine-3,1′-isobenzofuran]-1-yl)-2-(methylsulfonyl)ethanone] | 0.03 µg/mL | ≥ 3 µM | > 3 µM |
| CC(C)C(=O)N1CC2(C1)OCc1cc(C3=NOC(c4cc(Cl)c(Cl)c(Cl)c4)(C(F)(F)F)O3)ccc12 (stereo not drawn) [Example 31] | 0.3 µg/mL | ≥ 3 µM | 0.3 µM |
| CS(=O)(=O)CC(=O)N1CC2(C1)OCc1cc(N3CCC(c4cc(Cl)c(Cl)c(Cl)c4)(C(F)(F)F)C3)ccc12 (stereo not drawn) [Example 26, 5′-[3-(3,4,5-trichloro)-3-(trifluoromethyl)pyrrolidin-1-yl]-1-[(methylsulfonyl)acetyl]-3′H-spiro[azetidine-3,1′-[2]benzofuran]] | 0.1 µg/mL | ≥ 3 µM | > 3 µM |
| CC(C)C(=O)N1CC2(C1)OCc1cc(C3=NOC(c4cc(Cl)c(F)c(Cl)c4)(C(F)(F)F)O3)ccc12 (stereo not drawn) [Example 28, 1-(5′-(5-(3,5-dichloro-4-fluorophenyl)-5-(trifluoromethyl)-1,4,2-dioxazol-3-yl)-3′H-spiro[azetidine-3,1′-isobenzofuran]-1-yl)-2-methyl propan-1-one] | 0.1 µg/mL | ≥ 3 µM | 0.3 µM |

Reference: patent US9221835B2, “Spirocyclic derivatives as antiparasitic agents” (Zoetis Services LLC, priority 2012, dated 2015)
